Source: patent publication US7754243B2, “Aqueous suspension of nanoscale drug particles from supercritical fluid processing” (Clemson University Research Foundation, priority 2004, dated 2010)

Tests used:
[1] = Stability of the product aqueous suspension against precipitation; assay type: physicochemical; conditions: for time until precipitation appeared in the suspension: receiving solution neat water
Method: (§1) A system similar to that illustrated in FIG. 1 was utilized to form aqueous suspensions of Ibuprofen particles. Specifically, a solution (0.25 mg/mL) of Ibuprofen (available from Sigma-Aldrich Corporation) in liquid carbon dioxide (high-purity, SFC grade obtained from Air Products Corporation) was prepared in the syringe pump 10. The solution was pushed through the heating unit 14 to reach the desired supercritical temperature of 40° C. before reaching the expansion nozzle 16. The rapid expansion was carried out at a pre-expansion pressure of 200 bar through a 50 μm orifice into an aqueous solution. FIG. 2A is an SEM analysis of the precipitate obtained when the receiving solution in the expansion chamber 18 was neat water.

[2] = Statistical analysis of SEM images of nanoparticles in the product aqueous suspension; assay type: physicochemical; conditions: for average nanoparticle size: Ibuprofen
Method: as §1, with “A specimen” for “FIG. 2A is an SEM analysis”, “product suspension was prepared for SEM imaging by depositing a few drops of the dilute nanoparticle aqueous suspension onto a carbon tape, followed by drying under ambient condition and then coating with platinum before imaging. SEM images were” for “precipitate”, “on a Hitachi S-4700 Field-Emission SEM system.” for “when the receiving solution in the expansion chamber 18 was neat water.”

Question: What does the source list for `CC(C)Cc1ccc(C(C)C(=O)O)cc1` (centres unmarked) [Ibuprofen]?
Answer: stability of product suspension ([1]; receiving solution aqueous PVP (Mw≈40,000)): no sign of instability after several days; stability of product suspension ([1]; receiving solution aqueous SDS, 3.3 mg/mL): remained stable without precipitation; time until precipitation appeared in the suspension [1]: ≤ 15 min; change in nanoparticle size on increase of drug loading and PVP concentration ([2]; Ibuprofen loading 0.25 to 0.83 mg/mL, PVP concentration 0.5 to 3.3 mg/mL): no significant changes; average size in diameter ([2]; Ibuprofen nanoparticles, receiving solution aqueous PVP (Mw≈40,000), pre-expansion 40° C., 200 bar): 40 nm; average size in diameter ([2]; Ibuprofen nanoparticles, receiving solution aqueous SDS, 3.3 mg/mL): 25 nm; average nanoparticle size ([2]; PVP receiving solution, pre-expansion temperature 120° C.): 52 nm; average nanoparticle size ([2]; high-molecular weight PVP (Mw≈360,000)): 30 nm; change in average particle size on variation of drug/polymer weight ratio ([2]; PVP, drug/polymer weight ratio varied from 0.3 to 4 (Ibuprofen) or 0.3 to 2 (Naproxen)): no significant changes

Question: With `COc1ccc2cc([C@H](C)C(=O)O)ccc2c1` [Naproxen] as the molecule, how does the “time until precipitation appeared in the suspension” value [1] read?
Answer: Its value is no more than 15 min.

Question: And the “average size in diameter” value ([2]; Naproxen nanoparticles, 2 wt % methanol co-solvent, receiving solution 0.5 mg/mL PVP (Mw≈40,000))?
Answer: Its value is 64 nm.
